Test results taken from patent publication US6924304B2, “Cell proliferation inhibitors” (Abbott Laboratories, priority 1999, dated 2005).
Structures can show the parent of a compound that is named as a salt.

What was measured:
[1] = tested on: human colon adenocarcinoma, MDR positive (HCT-15) cells; assay: 48-hour cellular proliferation assay (sulforhodamine staining), HCT-15 cells; assay type: cell-based; conditions: 10^−4 M compound, HCT-15 cells (MDR positive); for inhibition at 100 µM: Homo sapiens
Procedure: (§1) Compounds of this invention were tested in a 48-hour cellular proliferation assay which uses human colon adenocarcinoma, MDR positive (HCT-15) cells, and human lung large cell carcinoma, MDR negative (NCI-H460) cells, in the 96-well microtitre format described in Skehan P., et al. New Colorimetric Cytotoxicity Assay for Anticancer Drug Screening. 1990, J. Natl. Cancer Inst. 82:1107-1112, hereby incorporated by reference. Briefly, the wells of a microtitre plate were charged sequentially with cultured cells and compounds of the invention (1.0×10^−4 to 1.0×10^−11 M in 10% DMSO prepared by dissolving compounds of the invention in DMSO and adding 11 μL of the DMSO solution to 100 μL of culture medium for a final DMSO concentration of 10%). Two of the following controls were also present in each microtitre plate: a solvent (DMSO) control without drug that yielded a 0% inhibition level and a trichloroacetic acid-treated well that yielded a 100% inhibition level. The cells were grown in culture (37° C., 5% CO2 atmosphere) for 48 hours then fixed by the addition of trichloroacetic acid. The wells were stained with sulforhodamine, washed with 1% acetic acid, and treated with 0.01 M tris buffer (100 μL) to solubilize the adherent dye. The absorbance of the dye solution was measured with a Molecular Devices SpectraMax340 plate reader. The percent inhibition values were obtained by calculating the proportional response of the experimental values to the absorbance values of the controls.

[2] = tested on: human lung large cell carcinoma, MDR negative (NCI-H460) cells; assay: 48-hour cellular proliferation assay (sulforhodamine staining), NCI-H460 cells; assay type: cell-based; conditions: 10^−4 M compound; for inhibition at 100 µM: Homo sapiens, read-out: NCI-460 % inhibition at 10^−4 M
Procedure: as §1

| Compound | HCT-15 % inhibition at 10^−4 M [1] [%] | NCI-460 % inhibition at 10^−4 M [2] [%] | inhibition at 100 µM [1] [%] | inhibition at 100 µM [2] [%] |
| --- | --- | --- | --- | --- |
| 3,4-dimethoxy-N-(3,4,5-trimethoxyphenyl)benzamide [Example 2] | >95 | 99.6 |  |  |
| COc1cc(NS(=O)(=O)c2ccc(OC(F)(F)F)cc2)cc(OC)c1OC [Example 3, 4-trifluoromethoxy-N-(3,4,5-trimethoxyphenyl)benzenesulfonamide] |  |  | 94.4 | 100 |
| COc1cc(NS(=O)(=O)c2ccc(C(F)(F)F)cc2)cc(OC)c1OC [Example 4, 4-trifluoromethyl-N-(3,4,5-trimethoxyphenyl)benzenesulfonamide] |  |  | 82.6 | 99.8 |
| COc1cc(NS(=O)(=O)c2ccc([N+](=O)[O-])cc2)cc(OC)c1OC [Example 5, 4-nitro-N-(3,4,5-trimethoxyphenyl)benzenesulfonamide] |  |  | 68.5 | 99.9 |
| COc1cc(NS(=O)(=O)c2ccc(N)cc2)cc(OC)c1OC [Example 6, 4-amino-N-(3,4,5-trimethoxyphenyl)benzenesulfonamide] |  |  | 54.8 | > 95 |
| COc1cc(NS(=O)(=O)c2ccc(NC(=O)CCl)cc2)cc(OC)c1OC [Example 7, 4-((2-chloroacetyl)amino)-N-(3,4,5-trimethoxyphenyl)benzenesulfonamide] |  |  | 96.7 | 89.2 |
| COc1cc(NS(=O)(=O)c2ccccc2[N+](=O)[O-])cc(OC)c1OC [Example 8, 2-nitro-N-(3,4,5-trimethoxyphenyl)benzenesulfonamide] |  |  | 53.8 | 50 |
| COc1ccc(S(=O)(=O)Nc2cc(OC)c(OC)c(OC)c2)cc1[N+](=O)[O-] [Example 9, 4-methoxy-3-nitro-N-(3,4,5-trimethoxyphenyl)benzenesulfonamide] |  |  | 77.2 | 47.4 |
| COc1ccc(S(=O)(=O)Nc2cc(OC)c(OC)c(OC)c2)cc1N [Example 10, 3-amino-4-methoxy-N-(3,4,5-trimethoxyphenyl)benzenesulfonamide hydrochloride] |  |  | 99.8 | 99.6 |
| COc1cc(NS(=O)(=O)c2c[nH]c3ccc(N)cc23)cc(OC)c1OC [Example 17, 5-amino-N-(3,4,5-trimethoxyphenyl)-1H-indole-3-sulfonamide] |  |  |  | < 9.1 |
| COc1cc(NS(=O)(=O)c2ccc3c(ccn3C)c2)cc(OC)c1OC [Example 19, 1-methyl-N-(3,4,5-trimethoxyphenyl)-1H-indole-5-sulfonamide] |  |  |  | 100 |
| COc1ccc(NS(=O)(=O)c2cc(OC)c(OC)c(OC)c2)cc1 [Example 21, 3,4,5-trimethoxy-N-(4-methoxyphenyl)benenesulfonamide] | 97.8 | 96.0 |  |  |
| COc1ccc(NC(=O)c2cc(OC)c(OC)c(OC)c2)cc1O [Example 22, N-(3-hydroxy-4-methoxyphenyl)-3,4,5-trimethoxybenzamide] |  |  | 99.8 | 99.5 |
| COc1cc(S(=O)(=O)Nc2ccc3c(ccn3C)c2)cc(OC)c1OC [Example 23, N-(1-methyl-1H-indol-5-yl)-3,4,5-trimethoxybenzenesulfonamide] |  |  | 100 | 100 |
| COc1cc(S(=O)(=O)Nc2ccc(N(C)C)cc2)cc(OC)c1OC [Example 24, N-(4-(dimethylamino)phenyl)-3,4,5-trimethoxybenzenesulfonamide] |  |  | 95.8 | 92 |
| COc1cc(NS(=O)(=O)c2cc(OC)c(OC)c(OC)c2)ccc1F [Example 25, N-(4-fluoro-3-methoxyphenyl)-3,4,5-trimethoxybenzenesulfonamide] |  |  | 62.1 | 57.8 |
| COc1cc(S(=O)(=O)Nc2ccc(OC(F)(F)F)cc2)cc(OC)c1OC [Example 26, 3,4,5-trimethoxy-N-(4-(trifluoromethoxy)phenyl)benzenesulfonamide] |  |  | 70.9 | 46.7 |
| COc1cc(S(=O)(=O)Nc2c(F)c(F)c(F)c(F)c2F)cc(OC)c1OC [Example 27, 3,4,5-trimethoxy-N-(2,3,4,5,6-pentafluorophenyl)benzenesulfonamide] |  |  | 57 | 61.6 |
| COc1ccc(NS(=O)(=O)c2cc(OC)c(OC)c(OC)c2)cc1N [Example 28, N-(3-amino-4-methoxyphenyl)-3,4,5-trimethoxybenzenesulfonamide hydrochloride] |  |  | 99.9 | 99.8 |

| Compound | HCT-15 % inhibition at 10^−4 M [1] [%] | NCI-460 % inhibition at 10^−4 M [2] [%] | inhibition at 100 µM [1] [%] | inhibition at 100 µM [2] [%] |
| --- | --- | --- | --- | --- |
| COc1cc(S(=O)(=O)Nc2cccc3c2ccn3C)cc(OC)c1OC [Example 29, 3,4,5-trimethoxy-N-(1-methyl-1H-indol-4-yl)benzenesulfonamide] |  |  | 95.1 | 90.8 |
| COc1cc(S(=O)(=O)Nc2ccc3ccn(C)c3c2)cc(OC)c1OC [Example 30, 3,4,5-trimethoxy-N-(1-methyl-1H-indol-6-yl)benzenesulfonamide] |  |  | 94.9 | 83.8 |
| COc1cc(S(=O)(=O)Nc2ccc3[nH]ccc3c2)cc(OC)c1OC [Example 31, N-(1H-indol-5-yl)-3,4,5-trimethoxybenzenesulfonamide] |  |  | 98.6 | 95.1 |
| COc1cc(S(=O)(=O)Nc2ccc3c(c2)cc(C)n3C)cc(OC)c1OC [Example 32, N-(1,2-dimethyl-1H-indol-5-yl)-3,4,5-trimethoxybenzenesulfonamide] |  |  | 99.8 | 99.8 |
| COc1cc(S(=O)(=O)Nc2ccc3[nH]cc(Cl)c3c2)cc(OC)c1OC [Example 33, N-(3-chloro-1H-indol-5-yl)-3,4,5-trimethoxybenzenesulfonamide] |  |  | 92 | 2.8 |
| COc1cc(S(=O)(=O)Nc2ccc3[nH]ncc3c2)cc(OC)c1OC [Example 34, N-(1H-indazol-5-yl)-3,4,5-trimethoxybenzenesulfonamide] |  |  | 47.6 | 18.5 |
| COc1cc(S(=O)(=O)Nc2ccc3ncn(C)c3c2)cc(OC)c1OC [Example 35, 3,4,5-trimethoxy-N-(1-methyl-1H-benzimidazol-6-yl)benzenesulfonamide] |  |  | 65.2 | 34.5 |
| COc1cc(S(=O)(=O)Nc2ccc3c(c2)ncn3C)cc(OC)c1OC [Example 36, 3,4,5-trimethoxy-N-(1-methyl-1H-benzimidazol-5-yl)benzenesulfonamide] |  |  | 99.3 | 99.5 |
| COc1cc(S(=O)(=O)N(C)c2ccc3c(ccn3C)c2)cc(OC)c1OC [Example 37, 3,4,5-trimethoxy-N-methyl-N-(1-methyl-1H-indol-5-yl)benzenesulfonamide] |  |  | 99.9 | 100 |
| COc1cc(S(=O)(=O)N(CCN(C)C)c2ccc3c(ccn3C)c2)cc(OC)c1OC [Example 38, 3,4,5-trimethoxy-N-(2-(dimethylamino)ethyl)-N-(1-methyl-1H-indol-5-yl)benzenesulfonamide] |  |  | 87.5 | 81 |
| COc1cc(S(=O)(=O)Oc2ccc3[nH]ccc3c2)cc(OC)c1OC [Example 39, 1H-indol-5-ol, (3,4,5-trimethoxybenzenesulfonate)ester] | 100.0 | 100.0 |  |  |
| COc1ccc(S(=O)(=O)Oc2cc(OC)c(OC)c(OC)c2)cc1 [Example 40, (3,4,5-trimethoxyphenyl) 4-methoxybenzenesulfonate] |  |  | 99.9 | 99.9 |
| COc1cc(OS(=O)(=O)c2ccc(C)cc2)cc(OC)c1OC [Example 41, (3,4,5-trimethoxyphenyl) 4-methylbenzenesulfonate] |  |  | 99.8 | 99.5 |
| COc1cc(S(=O)(=O)Oc2ccc3[nH]ccc3c2)cc(OC)c1OC [Example 42, 1H-indol-5-yl 3,4,5-trimethoxybenzenesulfonate] |  |  | 100 | 100 |
| COc1ccc(S(=O)(=O)Oc2cc(OC)c(OC)c(OC)c2)cc1N [Example 43, (3,4,5-trimethoxyphenyl) 3-amino-4-methoxybenzenesulfonate] |  |  | 100 | 100 |
| COc1cc(OS(=O)(=O)c2ccc(N(C)C)cc2)cc(OC)c1OC [Example 44, (3,4,5-trimethoxyphenyl)-4-(dimethylamino)benzenesulfonate] |  |  | 100 | 99.9 |
| COc1cc(S(=O)(=O)Oc2ccc(C)cc2)cc(OC)c1OC [Example 45, 4-methylphenyl 3,4,5-trimethoxybenzenesulfonate] |  |  | 99.9 | 99.4 |
| COc1cc(OS(=O)(=O)c2ccc3c(c2)CCN3C)cc(OC)c1OC [Example 46, 3,4,5-trimethoxyphenyl 1-methyl-5-indolinesulfonate] |  |  | 99.6 | 99.5 |
